US5424293A (Cassella AG, priority 1992, dated 1995)
Read-outs that look alike come from different tables or passages of the source.

Key:
[1] = test system: gel-filtered human platelets; experiment: Inhibition of aggregation of gel-filtered human platelets after ADP or thrombin stimulation; type: cell-based
Description: (§1) The compounds are tested in particular for their inhibitory action in blood platelet aggregation and the adhesion of fibrinogen to blood platelets. Gel-filtered blood platelets from human donor blood are used, which are activated with ADP or thrombin.
As a functional test, the inhibition of aggregation of gel-filtered human platelets by the compounds according to the invention is measured after ADP or thrombin stimulation. The IC50 value of the inhibition is given.

[2] = target: T1, fibrinogen receptor (glycoprotein IIb/IIIa) (Homo sapiens, UniProt P05106+P08514); experiment: Inhibition of binding of 125I-fibrinogen to its receptor on intact, gel-filtered human platelets; conditions: inhibition of 125I-fibrinogen binding, stimulation with ADP (10 μM), read-out: Ki (μM), ADP-stimulated
T1 construct: endogenous in cells
T1 sequence (P08514 32-887 limits assumed): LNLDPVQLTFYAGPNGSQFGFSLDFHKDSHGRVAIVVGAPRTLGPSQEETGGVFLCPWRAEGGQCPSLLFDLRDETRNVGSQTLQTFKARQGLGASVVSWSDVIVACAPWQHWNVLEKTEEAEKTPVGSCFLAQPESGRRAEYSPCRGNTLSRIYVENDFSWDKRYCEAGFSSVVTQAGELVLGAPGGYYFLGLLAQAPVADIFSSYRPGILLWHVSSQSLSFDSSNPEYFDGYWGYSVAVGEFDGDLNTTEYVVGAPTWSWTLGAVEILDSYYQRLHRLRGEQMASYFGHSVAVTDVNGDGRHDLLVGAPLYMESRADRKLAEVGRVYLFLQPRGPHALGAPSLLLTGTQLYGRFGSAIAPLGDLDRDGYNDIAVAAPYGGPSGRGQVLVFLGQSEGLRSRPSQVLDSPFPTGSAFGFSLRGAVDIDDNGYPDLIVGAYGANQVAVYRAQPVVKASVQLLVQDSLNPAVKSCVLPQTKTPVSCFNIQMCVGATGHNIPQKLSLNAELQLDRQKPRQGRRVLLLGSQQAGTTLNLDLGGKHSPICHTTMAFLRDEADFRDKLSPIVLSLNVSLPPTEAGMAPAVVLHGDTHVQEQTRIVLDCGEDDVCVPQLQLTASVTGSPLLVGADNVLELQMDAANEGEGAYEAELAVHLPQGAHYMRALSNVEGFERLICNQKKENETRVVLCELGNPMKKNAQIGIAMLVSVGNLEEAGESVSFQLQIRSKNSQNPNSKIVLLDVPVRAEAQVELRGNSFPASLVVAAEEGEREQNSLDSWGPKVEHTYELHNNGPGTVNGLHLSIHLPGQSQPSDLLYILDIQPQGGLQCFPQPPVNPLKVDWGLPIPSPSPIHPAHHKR
T1 sequence (P08514 891-1039 partner limits assumed): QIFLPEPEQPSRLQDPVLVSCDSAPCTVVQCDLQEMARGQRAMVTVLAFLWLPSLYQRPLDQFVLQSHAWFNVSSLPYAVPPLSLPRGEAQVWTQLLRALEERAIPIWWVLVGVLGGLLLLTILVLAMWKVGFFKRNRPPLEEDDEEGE
T1 sequence (P05106 27-788): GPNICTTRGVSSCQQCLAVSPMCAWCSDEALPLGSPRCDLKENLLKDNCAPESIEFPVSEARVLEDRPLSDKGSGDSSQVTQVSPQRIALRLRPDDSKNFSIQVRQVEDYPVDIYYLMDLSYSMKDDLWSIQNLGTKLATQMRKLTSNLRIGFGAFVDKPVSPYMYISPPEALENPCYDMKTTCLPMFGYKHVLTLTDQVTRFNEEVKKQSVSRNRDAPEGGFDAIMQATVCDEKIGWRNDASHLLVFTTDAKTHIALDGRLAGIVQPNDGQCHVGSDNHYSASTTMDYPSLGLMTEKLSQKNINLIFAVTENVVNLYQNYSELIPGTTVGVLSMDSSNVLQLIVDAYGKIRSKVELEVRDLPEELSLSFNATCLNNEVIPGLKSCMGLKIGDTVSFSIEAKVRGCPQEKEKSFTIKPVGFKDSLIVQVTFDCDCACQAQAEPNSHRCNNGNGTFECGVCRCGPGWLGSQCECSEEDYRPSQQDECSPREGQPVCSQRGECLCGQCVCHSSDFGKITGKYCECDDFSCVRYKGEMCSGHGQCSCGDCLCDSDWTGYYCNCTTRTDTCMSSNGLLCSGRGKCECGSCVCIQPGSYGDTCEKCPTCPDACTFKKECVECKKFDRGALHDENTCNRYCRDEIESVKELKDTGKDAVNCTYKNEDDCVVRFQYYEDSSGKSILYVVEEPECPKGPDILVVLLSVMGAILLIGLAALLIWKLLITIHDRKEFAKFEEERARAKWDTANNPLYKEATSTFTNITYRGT
Description: as §1
The inhibition of the binding of fibrinogen to its receptor (glycoprotein IIb/IIIa) by the compounds according to the invention is tested on intact, gel-filtered human platelets. The Ki value of the inhibition of binding of ^125 I-fibrinogen after stimulation with ADP (10 μM) is given. (References: J. S. Bennett and G. Vilaire, J. Clin. Invest. 64 (1979), 1393-1401; E. Kornecki et al., J. Biol. Chem. 256 (1981), 5695-5701; G. A. Marguerie et al., J. Biol. Chem. 254 (1979), 5357-5363; G. A. Marguerie et al., J. Biol. Chem. 255 (1980), 154-161).

Work on N=C(N)Nc1cccc(C2NC(=O)N(CC(=O)N[C@@H](CC(=O)O)C(=O)N[C@H](C(=O)O)c3ccccc3)C2=O)c1 (stereo partly drawn) [Example 2] yielded an IC50 ([1]; Platelet, inhibition of aggregation of gel-filtered human platelets, ADP stimulation, read-out: ADP-stimulated IC50) of 6 µM, an IC50 ([1]; Platelet; inhibition of aggregation of gel-filtered human platelets, thrombin stimulation; read-out: Thrombin-stimulated IC50 9 μM)) of 3 µM and a Ki [2] of 2 µM.
With N=C(N)Nc1ccc(C2NC(=O)N(CC(=O)N[C@@H](CC(=O)O)C(=O)N[C@H](C(=O)O)c3ccccc3)C2=O)cc1 (stereo partly drawn) [Example 1, (5-(4-Guanidinophenyl)-2,4-dioxoimidazolin-3-yl)acetyl-L-aspartyl-L-phenylglycine] the IC50 ([1]; inhibition of aggregation of gel-filtered human platelets, ADP stimulation, read-out: ADP-stimulated IC50) was 0.2 µM, the IC50 ([1]; inhibition of aggregation of gel-filtered human platelets, thrombin stimulation; read-out: Thrombin-stimulated IC50 9 μM)) was 0.07 µM and the Ki [2] was 0.03 µM.
